Data set [1] relates to luciferase expression in the liver. Description: In vivo luciferase mRNA expression rodent model (LNP, liver luciferase). Particulars: tail vein, liver 4 hours; for Liver Luc @ 0.3 mg/kg (ng luc/g liver): 0.3 mg mRNA/kg; for Liver Luc @ 1.0 mg/kg (ng luc/g liver): 1.0 mg mRNA/kg. More on the design: species or system C57BL/6 mice. The method, then: Cationic lipid (MC3), DSPC, cholesterol and PEG-lipid were solubilized in ethanol at a molar ratio of 50:10:38.5:1.5. Lipid nanoparticles (LNP) were prepared at a total lipid to mRNA weight ratio of approximately 10:1 to 30:1. Briefly, the mRNA was diluted to 0.2 mg/mL in 10 to 50 mM citrate buffer, pH 4. Syringe pumps were used to mix the ethanolic lipid solution with the mRNA aqueous solution at a ratio of about 1:5 to 1:3 (vol/vol) with total flow rates above 15 ml/min. The ethanol was then removed and the external buffer replaced with PBS by dialysis. Finally, the lipid nanoparticles were filtered through a 0.2 μm pore sterile filter. Lipid nanoparticle particle size was 70-90 nm diameter as determined by quasi-elastic light scattering using a Nicomp 370 submicron particle sizer (Santa Barbara, Calif.).
Studies were performed in 6-8 week old female C57BL/6 mice (Charles River) according to guidelines established by an institutional animal care committee (ACC) and the Canadian Council on Animal Care (CCAC). Varying doses of mRNA-lipid nanoparticle were systemically administered by tail vein injection and animals euthanized at specific time points (1, 2, 4, 8 and 24 hrs) post-administration. Liver and spleen were collected in pre-weighted tubes, weights determined, immediately snap frozen in liquid nitrogen and stored at −80° C. until processing for analysis.
For liver, approximately 50 mg was dissected for analyses in a 2 mL FastPrep tubes (MP Biomedicals, Solon Ohio). ¼″ ceramic sphere (MP Biomedicals) was added to each tube and 500 μL of Glo Lysis Buffer—GLB (Promega, Madison Wis.) equilibrated to room temperature was added to liver tissue. Liver tissues were homogenized with the FastPrep24 instrument (MP Biomedicals) at 2×6.0 m/s for 15 seconds. Homogenate was incubated at room temperature for 5 minutes prior to a 1:4 dilution in GLB and assessed using SteadyGlo Luciferase assay system (Promega). Specifically, 50 μL of diluted tissue homogenate was reacted with 50 μL of SteadyGlo substrate, shaken for 10 seconds followed by 5 minute incubation and then quantitated using a CentroXS^3 LB 960 luminometer (Berthold Technologies, Germany). The amount of protein assayed was determined by using the BCA protein assay kit (Pierce, Rockford Ill.). Relative luminescence units (RLU) were then normalized to total ug protein assayed. To convert RLU to ng luciferase a standard curve was generated with QuantiLum Recombinant Luciferase (Promega). Based in the data provided in FIG. 1, the four-hour time point was chosen for efficacy evaluation of the lipid formulations (see EXAMPLE 48).
The FLuc mRNA (L-6107) from Trilink Biotechnologies will express a luciferase protein, originally isolated from the firefly, Photinus pyralis. FLuc is commonly used in mammalian cell culture to measure both gene expression and cell viability. It emits bioluminescence in the presence of the substrate, luciferin. This capped and polyadenylated mRNA is fully substituted with 5-methylcytidine and pseudouridine.
The cationic lipids shown in Table 2 have previously been tested with nucleic acids. For comparative purposes, these lipids were also used to formulate lipid nanoparticles containing the FLuc mRNA (L-6107) using an in line mixing method, as described in EXAMPLE 47 and in PCT/US10/22614, which is hereby incorporated by reference in its entirety. Lipid nanoparticles were formulated using the following molar ratio: 50% Cationic lipid/10% distearoylphosphatidylcholine (DSPC)/38.5% Cholesterol/1.5% PEG lipid (“PEG-DMG”, i.e., (1-(monomethoxy-polyethyleneglycol)-2,3-dimyristoylglycerol, with an average PEG molecular weight of 2000). Relative activity was determined by measuring luciferase expression in the liver 4 hours following administration via tail vein injection as described in EXAMPLE 47. The activity was compared at a dose of 0.3 and 1.0 mg mRNA/kg and expressed as ng luciferase/g liver measured 4 hours after administration, as described in EXAMPLE 47. […]

Data set [2] in a line: pKa of formulated cationic lipids in lipid nanoparticles (TNS fluorescence assay). In kind it is physicochemical. Particulars: read-out: pKa. The method, then: As described elsewhere, the pKa of formulated cationic lipids is correlated with the effectiveness of LNPs for delivery of nucleic acids (see Jayaraman et al, Angewandte Chemie, International Edition (2012), 51(34), 8529-8533; Semple et al, Nature Biotechnology 28, 172-176 (2010)). The preferred range of pKa is ˜5 to ˜7. […] Lipid nanoparticles comprising of cationic lipid/DSPC/cholesterol/PEG-lipid (50/10/38.5/1.5 mol %) in PBS at a concentration of 0.4 mM total lipid are prepared using the in-line process as described in EXAMPLE 47. TNS was prepared as a 100 μM stock solution in distilled water. Vesicles were diluted to 24 μM lipid in 2 mL of buffered solutions containing, 10 mM HEPES, 10 mM MES, 10 mM ammonium acetate, 130 mM NaCl, where the pH ranged from 2.5 to 11. An aliquot of the TNS solution was added to give a final concentration of 1 μM and following vortex mixing fluorescence intensity was measured at room temperature in a SLM Aminco Series 2 Luminescence Spectrophotometer using excitation and emission wavelengths of 321 nm and 445 nm. A sigmoidal best fit analysis was applied to the fluorescence data and the pKa was measured as the pH giving rise to half-maximal fluorescence intensity (see FIG. 2).

Setting [3] is: Table 6, LNP with 1.5% PEG-lipid (42-6).
Where [4] appears, read: Table 3, LNP with 1.5% PEG-DMA (42-6), FLuc mRNA.
The mark [5] stands for this setting: Table 3, in LNP cationic lipid/DSPC/cholesterol/PEG-lipid 50/10/38.5/1.5 mol %.

Where two headings read alike, the source gives them in different places.

Data on 20 molecules can be found in US10723692B2, “Lipids and lipid nanoparticle formulations for delivery of nucleic acids” (Acuitas Therapeutics, Inc., priority 2014, dated 2020).

By pKa is commonly meant the negative logarithm of the acid dissociation constant.

`CCCCC/C=C\C/C=C\CCCCCCCCN(CCCCCCCC/C=C\C/C=C\CCCCC)CCN(C)C` [A, reference compound]: in data set [1] (setting [3]), the “Liver Luc @ 0.3 mg/kg (ng luc/g liver)” value is 77 ± 40 ng luc/g liver and the “Liver Luc @ 1.0 mg/kg (ng luc/g liver)” value is reported as 203 ± 122 ng luc/g liver. Besides, the pKa in data set [2] (Table 5, in LNP) came out at 6.26.
As to `CCCCC/C=C\C/C=C\CCCCCCCCN(CCCCCCCC/C=C\C/C=C\CCCCC)CCCN(C)C` [B, reference compound], in data set [1] (setting [3]), the “Liver Luc @ 0.3 mg/kg (ng luc/g liver)” value is listed as 3 ± 0.8 ng luc/g liver and the “Liver Luc @ 1.0 mg/kg (ng luc/g liver)” value turned out to be 12 ± 4 ng luc/g liver. Also, the pKa in data set [2] (Table 6, in LNP) was 6.68.
The like results for `CCCCC/C=C\C/C=C\CCCCCCCCN(CCCCCCCC/C=C\C/C=C\CCCCC)CCCCN(C)C` [C, reference compound] were, in that order, 2 ± 0.5 ng luc/g liver, 7 ± 2 ng luc/g liver and 7.32.
For the molecule `C/C(=C\COC(=O)CCCCCN(CCCCCC(=O)OC/C=C(\C)CCCC(C)CCCC(C)CCCC(C)C)CCN(C)C)CCCC(C)CCCC(C)CCCC(C)C` (stereo not drawn) [Compound 2], in data set [1] (setting [4]), the “Liver Luc @ 0.3 mg/kg (ng luc/g liver)” value is on record as 23 ± 6 ng luc/g liver and the “Liver Luc @ 1.0 mg/kg (ng luc/g liver)” value turned out to be 84 ± 24 ng luc/g liver. Further, the pKa in data set [2] (setting [5]) came out at 5.64.
As for `C/C(=C\COC(=O)CN(CCN(C)C)CC(=O)OC/C=C(\C)CCCC(C)CCCC(C)CCCC(C)C)CCCC(C)CCCC(C)CCCC(C)C` (stereo not drawn) [Compound 3], in data set [1] (setting [4]), the “Liver Luc @ 0.3 mg/kg (ng luc/g liver)” value was found to be 1.5 ± 0.6 ng luc/g liver and the “Liver Luc @ 1.0 mg/kg (ng luc/g liver)” value was 0.32 ± 0.1 ng luc/g liver. In addition, the pKa in data set [2] (setting [5]) is 7.15.
Turning to `CCCCC(CC)C(=O)OCCCCCCCCCCCCN(CCCCCCCCCCCCOC(=O)C(CC)CCCC)CCN(C)C` (stereo not drawn) [Compound 4], in data set [1] (setting [4]), the “Liver Luc @ 0.3 mg/kg (ng luc/g liver)” value came out at 53 ± 10 ng luc/g liver and the “Liver Luc @ 1.0 mg/kg (ng luc/g liver)” value worked out at 126 ± 102 ng luc/g liver. Besides, in data set [2] (setting [5]), the pKa came to 6.43.
The like results for `CCCCCC(CCCC)OC(=O)CCCCCCCCCN(CCCCCCCCCC(=O)OC(CCCC)CCCCC)CCN(C)C` (stereo not drawn) [Compound 11] were, in that order, 328 ± 12 ng luc/g liver, 1266 ± 522 ng luc/g liver and 6.36.
On the same counts, the results for `CCCCCCCCOC(=O)CCCCCCCCCN(CCCCCCCCCC(=O)OCCCCCCCC)CCN(C)C` [Compound 13] are 16 ± 4 ng luc/g liver, 20 ± 20 ng luc/g liver and 6.51.
On the same counts, the results for `CCCCCCCCCCCOC(=O)CCCCCCCCCN(CCCCCCCCCC(=O)OCCCCCCCCCCC)CCN(C)C` [Compound 15] are 66 ± 32 ng luc/g liver, 243 ± 71 ng luc/g liver and 6.3.
Take `CCCCCCCCCCCOC(=O)CCCCCCCN(CCCCCCCC(=O)OCCCCCCCCCCC)CCN(C)C` [Compound 16]: in data set [1] (setting [4]), the “Liver Luc @ 0.3 mg/kg (ng luc/g liver)” value is recorded as 7 ± 1 ng luc/g liver and the “Liver Luc @ 1.0 mg/kg (ng luc/g liver)” value worked out at 14 ± 4 ng luc/g liver. For the same molecule, in data set [2] (setting [5]), the pKa came out at 6.63.
Regarding `CCCCCCCC/C=C/COC(=O)CCCCCCCN(CCCCCCCC(=O)OC/C=C/CCCCCCCC)CCN(C)C` [Compound 19], in data set [1] (setting [4]), the “Liver Luc @ 0.3 mg/kg (ng luc/g liver)” value is listed as 8 ± 3 ng luc/g liver and the “Liver Luc @ 1.0 mg/kg (ng luc/g liver)” value stood at 15 ± 21 ng luc/g liver. In addition, the pKa in data set [2] (setting [5]) turned out to be 6.72.
Turning to `CCCCCCC(CCCC)COC(=O)CCCCCCCN(CCCCCCCC(=O)OCC(CCCC)CCCCCC)CCN(C)C` (stereo not drawn) [Compound 20], in data set [1] (setting [4]), the “Liver Luc @ 0.3 mg/kg (ng luc/g liver)” value came out at 301 ± 155 ng luc/g liver and the “Liver Luc @ 1.0 mg/kg (ng luc/g liver)” value was 501 ± 96 ng luc/g liver. In addition, the pKa in data set [2] (setting [5]) is 6.44.
The like results for `CCCCCCC(CCCC)COC(=O)CCCCCCCCCN(CCCCCCCCCC(=O)OCC(CCCC)CCCCCC)CCN(C)C` (stereo not drawn) [Compound 21] were, in that order, 404 ± 103 ng luc/g liver, 4149 ± 2514 ng luc/g liver and 6.28.
On to `CCCCCCCCC(CCCCCC)COC(=O)CCCCCN(CCCCCC(=O)OCC(CCCCCC)CCCCCCCC)CCN(C)C` (stereo not drawn) [Compound 22], for which, in data set [1] (setting [4]), the “Liver Luc @ 0.3 mg/kg (ng luc/g liver)” value was 2126 ± 294 ng luc/g liver and the “Liver Luc @ 1.0 mg/kg (ng luc/g liver)” value amounted to 14486 ± 6607 ng luc/g liver. Also, in data set [2] (setting [5]), the pKa was 6.53.
On the same counts, the results for `CCCCCCCCC(CCCCCC)COC(=O)CCCCCCCN(CCCCCCCC(=O)OCC(CCCCCC)CCCCCCCC)CCN(C)C` (stereo not drawn) [Compound 23] are 1109 ± 209 ng luc/g liver, 4568 ± 762 ng luc/g liver and 6.24.
The like results for `CCCCCCCCCCC(C)OC(=O)CCCCCCCCCN(CCCCCCCCCC(=O)OC(C)CCCCCCCCCC)CCN(C)C` (stereo not drawn) [Compound 24] were, in that order, 1094 ± 180 ng luc/g liver, 6928 ± 1015 ng luc/g liver and 6.28.
`CCCCCCCCC(CCCCCC)COC(=O)CCCCCCCCCN(CCCCCCCCCC(=O)OCC(CCCCCC)CCCCCCCC)CCN(C)C` (stereo not drawn) [Compound 25]: in data set [1] (setting [4]), the “Liver Luc @ 0.3 mg/kg (ng luc/g liver)” value worked out at 901 ± 173 ng luc/g liver and the “Liver Luc @ 1.0 mg/kg (ng luc/g liver)” value is given as 6223 ± 1714 ng luc/g liver. Further, the pKa in data set [2] (setting [5]) was found to be 6.2.
On the same counts, the results for `CCCCC/C=C\C/C=C\CCCCCCCCOC(=O)CCCCCN(CCCCCC(=O)OCCCCCCCC/C=C\C/C=C\CCCCC)CCN(C)C` [Compound 26] are 30 ± 5 ng luc/g liver, 55 ± 0.8 ng luc/g liver and 6.89.
Turning to `CCCCCCCCCCC(CCCCCCCC)COC(=O)CCCCCN(CCCCCC(=O)OCC(CCCCCCCC)CCCCCCCCCC)CCN(C)C` (stereo not drawn) [Compound 27], in data set [1] (setting [4]), the “Liver Luc @ 0.3 mg/kg (ng luc/g liver)” value amounted to 724 ± 144 ng luc/g liver and the “Liver Luc @ 1.0 mg/kg (ng luc/g liver)” value stood at 6636 ± 1230 ng luc/g liver. Further, in data set [2] (setting [5]), the pKa amounted to 6.3.
On the same counts, the results for `CCCCCCCCCCC(CCCCCCCC)COC(=O)CCCCCCCN(CCCCCCCC(=O)OCC(CCCCCCCC)CCCCCCCCCC)CCN(C)C` (stereo not drawn) [Compound 28] are 522 ± 86 ng luc/g liver, 4582 ± 1291 ng luc/g liver and 6.2.
